{"source": "patent EP2361243B9", "about": "(Virobay, Inc., priority 2008, dated 2010)", "type_in_all_cases": "biochemical", "key": {"Human cathepsin F": {"molecular_target": "T1, Human cathepsin F (Homo sapiens, UniProt Q9UBX1)", "T1 sequence (Q9UBX1 271-484)": "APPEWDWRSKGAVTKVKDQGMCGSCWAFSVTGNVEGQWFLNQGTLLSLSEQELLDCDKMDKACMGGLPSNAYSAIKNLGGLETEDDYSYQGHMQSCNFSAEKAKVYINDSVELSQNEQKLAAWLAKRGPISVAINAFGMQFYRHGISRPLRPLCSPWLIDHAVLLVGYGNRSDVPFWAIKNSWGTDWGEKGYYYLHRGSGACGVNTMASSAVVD", "test": "Cathepsin F Assay", "settings": "apparent inhibition constant; substrate Z-Phe-Arg-AMC, pH 6.5, 30 min incubation at room temperature; read-out: CATF (Ki)", "description": "(§1) Solutions of test compounds in varying concentrations were prepared in 10 µL of dimethyl sulfoxide (DMSO) and then diluted into assay buffer (40 µL, comprising: MES, 50 mM (pH 6.5); EDTA, 2.5 mM; and NaCl, 100 mM); DTT, 2.5 mM; and BSA, 0.01 %. Human cathepsin F (0.1 pMoles in 25 µL of assay buffer) was added to the dilutions. The assay solutions were mixed for 5-10 seconds on a shaker plate, covered and incubated for 30 min at room temperature. Z-Phe-Arg-AMC (2 nMoles in 25 µL of assay buffer containing 10% DMSO) was added to the assay solutions and hydrolysis was followed spectrophotometrically (at λ 460 nm) for 5 min. Apparent inhibition constants (Ki) were calculated from the enzyme progress curves using standard mathematical models."}, "Human cathepsin L": {"molecular_target": "Human cathepsin L (Homo sapiens, UniProt P07711)", "sequence (P07711 114-333)": "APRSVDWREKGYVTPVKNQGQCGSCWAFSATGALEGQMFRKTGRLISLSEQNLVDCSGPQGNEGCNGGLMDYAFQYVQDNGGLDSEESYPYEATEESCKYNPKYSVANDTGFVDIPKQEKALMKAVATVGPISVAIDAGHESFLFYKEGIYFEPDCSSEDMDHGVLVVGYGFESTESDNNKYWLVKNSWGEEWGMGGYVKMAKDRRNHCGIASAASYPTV", "test": "Cathepsin L Assay", "settings": "apparent inhibition constant; substrate Z-Phe-Arg-AMC, pH 5.5, 30 min incubation at room temperature; read-out: CATL (Ki)", "description": "(§2) Solutions of test compounds in varying concentrations were prepared in 10 µL of dimethyl sulfoxide (DMSO) and then diluted into assay buffer (40 µL, comprising: MES, 50 mM (pH 5.5); EDTA, 2.5 mM; and DTT, 2.5 mM). Human cathepsin L (0.05 pMoles in 25 µL of assay buffer) was added to the dilutions. The assay solutions were mixed for 5-10 seconds on a shaker plate, covered and incubated for 30 min at room temperature. Z-Phe-Arg-AMC (1 nMoles in 25 µL of assay buffer) was added to the assay solutions and hydrolysis was followed spectrophotometrically at (λ 460 nm) for 5 min. Apparent inhibition constants (Ki) were calculated from the enzyme progress curves using standard mathematical models."}, "CATV": {"molecular_target": "CATV (Homo sapiens, UniProt O60911)", "sequence (O60911 114-334)": "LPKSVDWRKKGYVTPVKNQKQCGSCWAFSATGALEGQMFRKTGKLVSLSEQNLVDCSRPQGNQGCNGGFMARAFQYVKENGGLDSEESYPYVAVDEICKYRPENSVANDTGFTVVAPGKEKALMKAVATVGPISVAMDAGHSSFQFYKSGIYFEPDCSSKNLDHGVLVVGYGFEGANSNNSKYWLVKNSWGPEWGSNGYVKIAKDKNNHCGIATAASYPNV", "test": "Cathepsin V inhibition (CATV Ki, no method described)"}, "Human cathepsin S": {"molecular_target": "Human cathepsin S (Homo sapiens, UniProt P25774)", "sequence (P25774 115-331)": "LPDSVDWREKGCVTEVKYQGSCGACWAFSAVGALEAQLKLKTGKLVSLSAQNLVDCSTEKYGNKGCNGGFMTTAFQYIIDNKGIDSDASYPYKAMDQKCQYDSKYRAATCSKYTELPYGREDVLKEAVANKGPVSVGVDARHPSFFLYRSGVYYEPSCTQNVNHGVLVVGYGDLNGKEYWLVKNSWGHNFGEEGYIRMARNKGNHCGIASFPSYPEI", "test": "Cathepsin S Assay", "settings": "apparent inhibition constant; substrate Z-Val-Val-Arg-AMC, pH 6.5, 30 min incubation at room temperature; read-out: CATS (Ki)", "description": "as §1, with “β-mercaptoethanol,” for “DTT,”, “[…].” for “0.01 %.”, “S (0.05” for “F (0.1”, “Z-Val-Val-Arg-AMC (4” for “Z-Phe-Arg-AMC (2”, “λ,” for “λ”"}, "Human cathepsin B": {"molecular_target": "Human cathepsin B (Homo sapiens, UniProt P07858)", "test": "Cathepsin B Assay", "settings": "apparent inhibition constant; substrate Z-FR-AMC, pH 6, 30 min incubation at room temperature; read-out: CATB (Ki)", "description": "as §2, with “N,N-bis(2-hydroxyethyl)-2-aminoethanesulfonic acid (BES),” for “MES,”, “6); polyoxyethylenesorbitan monolaurate, 0.05%;” for “5.5); EDTA, 2.5 mM;”, “dithiothreitol (DTT),” for “DTT,”, “B (0.025” for “L (0.05”, “Z-FR-AMC (20” for “Z-Phe-Arg-AMC (1”"}}, "data": [{"compound": "N#CC1(NC(=O)[C@H](CS(=O)(=O)Cc2cccnc2)NCC(F)(F)Oc2ccc(F)cc2)CC1", "note": "[A, (R)-N-(1-cyanocyclopropyl)-2-(2,2-difluoro-2-(4-fluorophenoxy)ethylamino)-3-(pyridin-3-ylmethylsulfonyl)propanamide]", "values": [{"measurement": "Ki", "setting": "Human cathepsin F", "result": "> 1", "unit": "µM"}, {"measurement": "Ki", "setting": "Human cathepsin L", "result": "> 1", "unit": "µM"}, {"measurement": "Ki", "setting": "CATV", "result": "< 1", "unit": "µM"}, {"measurement": "Ki", "setting": "Human cathepsin S", "result": "< 0.1", "unit": "µM"}, {"measurement": "Ki", "setting": "Human cathepsin B", "result": "> 1", "unit": "µM"}]}, {"compound": "CC[C@H](NC(=O)[C@H](CS(=O)(=O)Cc1cccnc1)NCC(F)(F)Oc1ccc(F)cc1)C(=O)C(=O)NC1CC1", "note": "[B, (S)-N-cyclopropyl-3-((R)-2-(2,2-difluoro-2-(4-fluorophenoxy)ethylamino)-3-(pyridin-3-ylmethylsulfonyl)propanamido)-2-oxopentanamide]", "values": [{"measurement": "Ki", "setting": "Human cathepsin F", "result": "< 1", "unit": "µM"}, {"measurement": "Ki", "setting": "Human cathepsin L", "result": "< 0.1", "unit": "µM"}, {"measurement": "Ki", "setting": "CATV", "result": "< 0.1", "unit": "µM"}, {"measurement": "Ki", "setting": "Human cathepsin S", "result": "< 0.1", "unit": "µM"}, {"measurement": "Ki", "setting": "Human cathepsin B", "result": "< 0.1", "unit": "µM"}]}, {"compound": "CC#C[C@H](N[C@@H](CSCC1CC1)C(=O)NC1(C#N)CC1)C(F)(F)Oc1ccc(SC)cc1", "note": "[Compound C, (R)-N-(1-cyanocyclopropyl)-3-(cyclopropylmethylthio)-2-((S)-1,1-difluoro-1-(4-(methylthio)phenoxy)pent-3-yn-2-ylamino)propanamide]", "values": [{"measurement": "Ki", "setting": "Human cathepsin F", "result": "> 1", "unit": "µM"}, {"measurement": "Ki", "setting": "Human cathepsin L", "result": "> 1", "unit": "µM"}, {"measurement": "Ki", "setting": "CATV", "result": "> 1", "unit": "µM"}, {"measurement": "Ki", "setting": "Human cathepsin S", "result": "< 1", "unit": "µM"}, {"measurement": "Ki", "setting": "Human cathepsin B", "result": "< 0.1", "unit": "µM"}]}, {"compound": "CC#C[C@H](N[C@@H](CS(=O)(=O)CC1CC1)C(=O)NC1(C#N)CC1)C(F)(F)Oc1ccc(S(C)(=O)=O)cc1", "note": "[D, (R)-N-(1-cyanocyclopropyl)-3-(cyclopropylmethylsulfonyl)-2-((S)-1,1-difluoro-1-(4-(methylsulfonyl)phenoxy)pent-3-yn-2-ylamino)propanamide]", "values": [{"measurement": "Ki", "setting": "Human cathepsin F", "result": "> 1", "unit": "µM"}, {"measurement": "Ki", "setting": "Human cathepsin L", "result": "> 1", "unit": "µM"}, {"measurement": "Ki", "setting": "CATV", "result": "< 1", "unit": "µM"}, {"measurement": "Ki", "setting": "Human cathepsin S", "result": "< 0.1", "unit": "µM"}, {"measurement": "Ki", "setting": "Human cathepsin B", "result": "> 1", "unit": "µM"}]}, {"compound": "CC#C[C@H](N[C@@H](CSCc1ccccn1)C(=O)NC1(C#N)CC1)C(F)(F)Oc1ccc(SC)cc1", "note": "[E, (R)-N-(1-cyanocyclopropyl)-2-((S)-1,1-difluoro-1-(4-(methylthio)phenoxy)pent-3-yn-2-ylamino)-3-(pyridin-2-ylmethylthio)propanamide]", "values": [{"measurement": "Ki", "setting": "Human cathepsin F", "result": "> 1", "unit": "µM"}, {"measurement": "Ki", "setting": "Human cathepsin L", "result": "> 1", "unit": "µM"}, {"measurement": "Ki", "setting": "CATV", "result": "< 1", "unit": "µM"}, {"measurement": "Ki", "setting": "Human cathepsin S", "result": "< 0.1", "unit": "µM"}, {"measurement": "Ki", "setting": "Human cathepsin B", "result": "> 1", "unit": "µM"}]}, {"compound": "CC#C[C@H](N[C@@H](CS(=O)(=O)Cc1ccccn1)C(=O)NC1(C#N)CC1)C(F)(F)Oc1ccc(S(C)(=O)=O)cc1", "note": "[F, (R)-N-(1-cyanocyclopropyl)-2-((S)-1,1-difluoro-1-(4-(methylsulfonyl)phenoxy)pent-3-yn-2-ylamino)-3-(pyridin-2-ylmethylsulfonyl)propanamide]", "values": [{"measurement": "Ki", "setting": "Human cathepsin F", "result": "> 1", "unit": "µM"}, {"measurement": "Ki", "setting": "Human cathepsin L", "result": "> 1", "unit": "µM"}, {"measurement": "Ki", "setting": "CATV", "result": "< 0.1", "unit": "µM"}, {"measurement": "Ki", "setting": "Human cathepsin S", "result": "< 0.1", "unit": "µM"}, {"measurement": "Ki", "setting": "Human cathepsin B", "result": "> 1", "unit": "µM"}]}, {"compound": "CC#C[C@H](N[C@@H](CSCc1cccnc1)C(=O)NC1(C#N)CC1)C(F)(F)Oc1ccc(SC)cc1", "note": "[G]", "values": [{"measurement": "Ki", "setting": "Human cathepsin F", "result": "> 1", "unit": "µM"}, {"measurement": "Ki", "setting": "Human cathepsin L", "result": "> 1", "unit": "µM"}, {"measurement": "Ki", "setting": "CATV", "result": "< 1", "unit": "µM"}, {"measurement": "Ki", "setting": "Human cathepsin S", "result": "< 0.1", "unit": "µM"}, {"measurement": "Ki", "setting": "Human cathepsin B", "result": "> 1", "unit": "µM"}]}, {"compound": "CC#C[C@H](N[C@@H](CS(=O)(=O)Cc1cccnc1)C(=O)NC1(C#N)CC1)C(F)(F)Oc1ccc(S(C)(=O)=O)cc1", "note": "[H, (R)-N-(1-cyanocyclopropyl)-3-((S)-1,1 1-difluoro-1-(4-(methylsulfonyl)phenoxy)pent-3-yn-2-ylamino)-2-((pyridin-3-ylmethylsulfonyl)methyl)propanamide]", "values": [{"measurement": "Ki", "setting": "Human cathepsin F", "result": "> 1", "unit": "µM"}, {"measurement": "Ki", "setting": "Human cathepsin L", "result": "> 1", "unit": "µM"}, {"measurement": "Ki", "setting": "CATV", "result": "< 0.1", "unit": "µM"}, {"measurement": "Ki", "setting": "Human cathepsin S", "result": "< 0.1", "unit": "µM"}, {"measurement": "Ki", "setting": "Human cathepsin B", "result": "> 1", "unit": "µM"}]}, {"compound": "CC#C[C@H](N[C@@H](CS(=O)(=O)Cc1ccc[n+]([O-])c1)C(=O)NC1(C#N)CC1)C(F)(F)Oc1ccc(S(C)(=O)=O)cc1", "note": "[I]", "values": [{"measurement": "Ki", "setting": "Human cathepsin F", "result": "> 1", "unit": "µM"}, {"measurement": "Ki", "setting": "Human cathepsin L", "result": "> 1", "unit": "µM"}, {"measurement": "Ki", "setting": "CATV", "result": "< 0.1", "unit": "µM"}, {"measurement": "Ki", "setting": "Human cathepsin S", "result": "< 0.1", "unit": "µM"}, {"measurement": "Ki", "setting": "Human cathepsin B", "result": "> 1", "unit": "µM"}]}, {"compound": "CC[C@H](NC(=O)[C@H](CS(=O)(=O)CC1CC1)NCC(F)(F)Oc1ccc(F)cc1)C(=O)C(=O)NC1CC1", "note": "[J, (S)-N-cyclopropyl-3-((R)-3-(cyclopropylmethylsulfonyl)-2-(2,2-difluoro-2-(4-fluorophenoxy)ethylamino)propanamido)-2-oxopentanamide]", "values": [{"measurement": "Ki", "setting": "Human cathepsin F", "result": "< 1", "unit": "µM"}, {"measurement": "Ki", "setting": "Human cathepsin L", "result": "< 1", "unit": "µM"}, {"measurement": "Ki", "setting": "CATV", "result": "< 0.1", "unit": "µM"}, {"measurement": "Ki", "setting": "Human cathepsin S", "result": "< 0.1", "unit": "µM"}, {"measurement": "Ki", "setting": "Human cathepsin B", "result": "< 0.1", "unit": "µM"}]}, {"compound": "CC[C@H](NC(=O)[C@H](CC(F)(F)CC1CC1)NCC(F)(F)Oc1ccc(F)cc1)C(=O)C(=O)NC1CC1", "note": "[K, (S)-5-cyclopropyl-N-((S)-1-(cyclopropylamino)-1,2-dioxopentan-3-yl)-2-(2,2-difluoro-2-(4-fluorophenoxy)ethylamino)-4,4-difluoropentanamide]", "values": [{"measurement": "Ki", "setting": "Human cathepsin L", "result": "< 0.1", "unit": "µM"}, {"measurement": "Ki", "setting": "CATV", "result": "< 0.1", "unit": "µM"}, {"measurement": "Ki", "setting": "Human cathepsin S", "result": "< 0.1", "unit": "µM"}, {"measurement": "Ki", "setting": "Human cathepsin B", "result": "< 1", "unit": "µM"}]}, {"compound": "N#CC1(NC(=O)[C@H](CC(F)(F)CC2CC2)NCC(F)(F)Oc2ccc(F)cc2)CC1", "note": "[L, (S)-N-(1-cyanocyclopropyl)-5-cyclopropyl-2-(2,2-difluoro-2-(4-fluorophenoxy)ethylamino)-4,4-difluoropentanamide]", "values": [{"measurement": "Ki", "setting": "Human cathepsin L", "result": "> 1", "unit": "µM"}, {"measurement": "Ki", "setting": "CATV", "result": "> 1", "unit": "µM"}, {"measurement": "Ki", "setting": "Human cathepsin S", "result": "< 1", "unit": "µM"}, {"measurement": "Ki", "setting": "Human cathepsin B", "result": "> 1", "unit": "µM"}]}]}
